According to US20220000832A1 (priority 2019, published 2022):
Like-named read-outs stand apart in the source and are kept apart here.

Experiments:
[1] = tested on: Melb-a (melanoblast) cells; assay: cells; assay type: cell-based
[2] = tested on: Melb-a (melanoblast) cells
[3] = tested on: melb-a cells (melanoblasts); assay: cells; assay type: cell-based; details: for fold induction at 1 µM / fold induction at 10 µM / fold induction at 100 µM: read-out: Increase of cell migration rate compared to negative control
[4] = 96 h, read-out: Melanin content compared to negative control (%)
[5] = 24 h, read-out: Cell migration rate (%)

| SMILES | fold induction at 10 µM ([3]; 24 h) | activity at 10 µM [1, 4] | activity at 10 µM [3, 5] | further results |
| --- | --- | --- | --- | --- |
| O=Cc1ccc(CO)o1 [Example 1, 5-(hydroxymethyl)furan-2-carbaldehyde] | 2.7 | – | – | Melanin content compared to negative control (in words) [1]: gradually increased; Melanin content (in words) ([1]; 1000 μM): rather reduced; activity at 1000 µM [1, 4]: 149 ± 17.4%; Cell viability ([2]; mouse): ≥ 105%; Cell migration rate (in words) [3]: decreased; Cell migration rate compared to negative control (in words) [3]: gradually increased; fold induction at 1 µM ([3]; 24 h): 2; fold induction at 100 µM ([3]; 24 h, 100 μM): ~4; activity at 25 µM [3, 5]: 263 ± 12.7%; activity at 50 µM [3, 5]: 309 ± 15.5%; activity at 1000 µM [3, 5]: 253 ± 13.4% |
| O=Cc1ccc(COCc2ccccc2)o1 [Example 2, 5-((benzyloxy)methyl)furan-2-carbaldehyde] | – | 82.4 ± 4.25% | 114 ± 18.9% | – |
| C=CCOCc1ccc(C=O)o1 [Example 3, 5-((allyloxy)methyl)furan-2-carbaldehyde] | – | 95.2 ± 7.54% | 134 ± 11.7% | – |
| O=Cc1ccc(C(=O)NCc2ccccc2)o1 [Example 4, N-benzyl-5-formylfuran-2-carboxamide] | – | 97.4 ± 4.47% | 115 ± 19.5% | – |
| CCCNC(=O)c1ccc(C=O)o1 [Example 5, 5-formyl-N-propylfuran-2-carboxamide] | > 2 | 94.3 ± 1.51% | 229 ± 11.6% | – |
| CNC(=O)c1ccc(C=O)o1 [Example 6, 5-formyl-N-methylfuran-2-carboxamide] | – | 95.9 ± 2.87% | 139 ± 17.5% | – |
| O=Cc1ccc(C(=O)OCc2ccccc2)o1 [Example 7, Benzyl 5-formylfuran-2-carboxylate] | > 2 | 134 ± 2.32% | 202 ± 61.9% | – |
| C=CCOC(=O)c1ccc(C=O)o1 [Example 8, allyl 5-formylfuran-2-carboxylate] | – | 122 ± 5.15% | 178 ± 19.8% | – |
| COC(=O)c1ccc(C(OC)OC)o1 [Example 9, methyl 5-(dimethoxymethyl)furan-2-carboxylate] | > 2 | 131 ± 2.03% | – | Melanin content compared to negative control (in words) [1]: gradually increased; activity at 1 µM [1, 4]: 128 ± 7.18%; activity at 100 µM [1, 4]: 142 ± 5.43%; Cell viability ([2]; mouse): ≥ 99%; Cell migration rate compared to negative control (in words) [3]: gradually increased; fold induction at 1 µM ([3]; 24 h): ~1.9; fold induction at 100 µM ([3]; 24 h, 100 μM): ~3; activity at 1 µM [3, 5]: 198 ± 6.81%; activity at 100 µM [3, 5]: 303 ± 18.7% |
| COC(=O)c1ccc(C=O)o1 [Example 10, methyl 5-formylfuran-2-carboxylate] | > 2 | – | – | Melanin content compared to negative control (in words) [1]: gradually increased; Melanin content (in words) ([1]; 100 μM): somewhat reduced; activity at 1 µM [1, 4]: 136 ± 5.19%; activity at 100 µM [1, 4]: 159 ± 1.77%; Cell viability ([2]; mouse): ≥ 99%; Cell migration rate compared to negative control (in words) [3]: gradually increased; fold induction at 1 µM ([3]; 24 h): ~1.9; fold induction at 100 µM ([3]; 24 h, 100 μM): ~2.7; activity at 1 µM [3, 5]: 189 ± 11.4%; activity at 100 µM [3, 5]: 283 ± 7.03% |
| CCOC(=O)c1ccc(CO)o1 [Example 11, ethyl 5-(hydroxymethyl)furan-2-carboxylate] | – | 104 ± 4.63% | 112 ± 13.9% | – |
| OCc1ccc(CO)o1 [Example 12, Furan-2,5-diyldimethanol] | – | 139 ± 1.6% | 173 ± 29.9% | – |
| COC(=O)c1ccc(CO)o1 [Example 13, methyl 5-(hydroxymethyl)furan-2-carboxylate] | – | 145 ± 5.9% | 161 ± 29.4% | – |
| O=C(O)c1ccc(CO)o1 [Example 14, 5-(hydroxymethyl)furan-2-carboxylic Acid] | > 2 | 158.4 ± 0.75% | 264 ± 7.81% | – |
| CC(O)c1ccc(COC2CCCCO2)o1 (centres unmarked) [Example 15, 1-(5-(((tetrahydro-2H-pyran-2-yl)oxy)methyl)furan-2-yl)ethanol] | – | 144 ± 4.59% | 197 ± 33.8% | – |
| CC(O)c1ccc(CO)o1 (centres unmarked) [Example 16, 1-(5-(hydroxymethyl)furan-2-yl)ethanol] | > 2 | 139 ± 19.9% | 215 ± 13.9% | – |
| O=Cc1ccc(C=O)o1 [Example 17, Furan-2,5-dicarbaldehyde] | – | 95.3 ± 6.49% | 118 ± 21.9% | Melanin content compared to negative control (in words) ([1]; 10 μM): lowered; Cell viability (in words) [2]: very low; Cell viability (%) ([2]; mouse): 23.08 ± 5.95%; Cell viability (in words) ([2]; mouse): low compared to when the compound of Example 1 was treated |
| CC(O)c1ccc(C=O)o1 (centres unmarked) [Example 18, 5-(1-hydroxyethyl)furan-2-carbaldehyde] | > 2 | – | – | Melanin content compared to negative control (in words) [1]: slightly increased; Melanin content (in words) ([1]; 100 μM): decreased; activity at 1 µM [1, 4]: 125 ± 3.04%; activity at 100 µM [1, 4]: 128 ± 4.15%; Cell migration rate compared to negative control (in words) [3]: gradually increased; Cell migration rate (in words) ([3]; 100 μM): rather decreased; fold induction at 1 µM ([3]; 24 h): ~1.7; activity at 1 µM [3, 5]: 177 ± 25.5%; activity at 100 µM [3, 5]: 167 ± 20.3% |
| CC(=O)OC(C)c1ccc(C=O)o1 (centres unmarked) [Example 19, 1-(5-formylfuran-2-yl)ethyl Acetate] | > 2 | 116 ± 3.15% | 230 ± 25.1% | – |
| CCC(O)c1ccc(C=O)o1 (centres unmarked) [Example 20, 5-(1-hydroxypropyl)furan-2-carbaldehyde] | > 2 | 112 ± 1.5% | 261 ± 16.8% | – |
| CCC(OC(C)=O)c1ccc(C=O)o1 (centres unmarked) [Example 21, 1-(5-formylfuran-2-yl)propyl Acetate] | > 2 | 115 ± 2.96% | 260 ± 16.5% | – |
